These results are taken from US11590147B2, “17-hydroxyprogesterone ester-containing oral compositions and related methods” (Lipocine Inc., priority 2015, dated 2023).

For data set [1] the following is noted: cited from earlier work.
Data set [2] can be described thus: Phase 1b open-label pharmacokinetic study in healthy pregnant women (single dose data and simulated steady state). To be noted: for Cmax / AUC(0-t): female, human, in vivo, N = 7; for Cmax / AUC(0-t) / AUCSS / Css, max: pregnant women; for AUC(0-t): read-out: AUC0-24; for AUCSS / Css, max: simulated steady state; for AUCSS: 1 week duration. The class given is in vivo, human (pregnant women). As to the method: Formulations (e.g., oral dosage forms like those described herein) were used in a Phase 1b open-label study that enrolled eight healthy; pregnant women at 16 to 18 weeks gestation. All subjects received three treatments in sequence. In period one, subjects received two doses of 400 mg with oral dosage forms like those described herein, administered 12 hours apart. In period two, subjects received two doses of 800 mg oral with dosage forms like those described herein, administered 12 hours apart. In period three, subjects were given 250 mg of HPC via intramuscular injection (marketed product Makena®). Blood samples were collected periodically over 24 hours following oral dosing and over 28 days following the IM dose.
Steady state pharmacokinetic parameters for oral and IM dosing regimens were simulated based on single dose data and the Cmax and […] values are shown in the table below.

For data set [3] the following is noted: Saxton et al. 2004; Greene NEJM; cited from earlier work.
Setting [4] is: oral 400 mg BID (two doses 12 hours apart).
[5] abbreviates: oral 800 mg BID (two doses 12 hours apart).

Each structure is given as a SMILES string. Read-outs that look alike come from different tables or passages of the source.

Take `CCCCCC(=O)O[C@]1(C(C)=O)CC[C@H]2[C@@H]3CCC4=CC(=O)CC[C@]4(C)[C@H]3CC[C@@]21C` [Example 17HPC, 17-hydroxyprogesterone caproate]: the solubility in water in data set [1] is < 0.02 µg/mL. Besides, the “increase in exposure with dose” value in data set [2] (800 mg dose vs 400 mg dose, oral) was “more than dose proportional increase in exposure”. Moreover, the peak concentration (Cmax) (as a rule, the peak of the concentration-time curve) in data set [2] (setting [4]) is 21.3 ng/mL; in data set [2] (setting [5]) it was 63.2 ng/mL. Also, the AUC(0-t) was 156 ng·h/mL in data set [2] (setting [4]) and 577 ng·h/mL in data set [2] (setting [5]). The “absorption following oral administration” value in data set [2] (healthy pregnant women) is on record as “significant HPC absorption”. Also, the AUCSS was 1074 ng·h/mL in data set [2] (oral 400 mg BID) and 4058 ng·h/mL in data set [2] (oral 800 mg BID). Also, the “Css, max” value in data set [2] (oral 400 mg BID) was 21.6 ng/mL; in data set [2] (oral 800 mg BID), 71.1 ng/mL. Besides, in data set [3], the oral activity entry is “no oral activity”.
